# Test results reported in PubChem BioAssay (NCI).
#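 Briefly, cells in 96-well plates were exposed to five compound concentrations for 48 h, and endpoints were estimated by linear interpolation. Abbreviation: GI50, concentration required for 50% inhibition of growth. TGI denotes the concentration required for complete inhibition of growth.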
# Experiments:
# Assay in all cases: NCI-60 cell line screen, 48 h
# [1] = system: A498 renal
# [2] = system: HCT-15 colon
# [3] = system: KM12 colon
# [4] = system: NCI-H23 lung
# [5] = system: RPMI-8226 leukemia
# [6] = system: SF-539 CNS
# [7] = system: SK-MEL-28 melanoma
# [8] = system: T-47D breast
# [9] = system: RXF 393 renal
# [10] = system: SK-MEL-2 melanoma
SMILES,GI50 [1] [µM],TGI [1] [µM],GI50 [2] [µM],TGI [2] [µM],GI50 [3] [µM],TGI [3] [µM],GI50 [4] [µM],TGI [4] [µM],GI50 [5] [µM],TGI [5] [µM],GI50 [6] [µM],TGI [6] [µM],GI50 [7] [µM],TGI [7] [µM],GI50 [8] [µM],TGI [8] [µM],GI50 [9] [µM],TGI [9] [µM],GI50 [10] [µM],TGI [10] [µM]
CN(C)Cc1cccc(CN(C)C)[c]1[Sn]([Br])([c]1ccccc1)[c]1ccccc1,21.7,47.6,14.5,29.4,11,28.1,13.5,46.3,2.29,6.86,15.2,30.3,14.5,35.2,4.72,21.5,,,,
O=C(NC1CCN(Cc2ccccc2)CC1)c1cc(C(=O)NC2CCN(Cc3ccccc3)CC2)cc(C(=O)NC2CCN(Cc3ccccc3)CC2)c1,,,> 50,> 50,3.37,12.1,7.78,15.7,5.52,20.8,0.865,1.62,2.81,9.5,4.56,14.3,2.16,10.2,9.02,16.9
Cc1cccc2c1O/C(=C\c1ncc([N+](=O)[O-])n1C)C2=O,,,0.0874,0.318,0.262,0.877,0.213,0.742,0.589,2.01,1.15,3.87,0.24,0.688,9.23,58.7,,,0.246,0.584
CCCCCCCC(=O)OCC1OC(n2cc(F)c(=O)[nH]c2=O)C(NC(=O)OCc2ccccc2)C(OC(=O)CCCCCCC)C1O (stereo unspecified),,> 100,,> 100,,> 100,,> 100,,51.2,,74.4,,> 100,,,,64.2,,57.1
C[C@@H](Oc1cc(NS(=O)(=O)N2CCC2)nc(SCc2cccc(F)c2F)n1)[C@@H](O)CO,,,> 100,> 100,> 100,> 100,> 100,> 100,> 100,> 100,> 100,> 100,> 100,> 100,> 100,> 100,> 100,> 100,> 100,> 100
COc1cc2c(=O)n(CCCn3ccnc3)c3c4cc5c(cc4ccc3c2cc1OC)OCO5,,,1.17,> 100,1.37,> 100,0.599,> 100,,,0.489,1.8,2,> 100,0.245,7.82,0.316,14.3,8.06,> 83.8
CCN(CC)C(=O)CNC(=O)OC(C)(C)C,,> 100,,> 100,,> 100,,> 100,,> 100,,> 100,,> 100,,,,> 100,,> 100
CC(C(=O)c1ccccc1)C1(O)C(=O)Nc2ccccc21 (stereo unspecified),,> 100,,> 100,,> 100,,> 100,,> 100,,> 100,,> 100,,,,> 100,,> 100
C/C=C1\C(=O)O[C@@H]2C1C[C@@H]1O[C@H]2[C@H](C)CCC/C(C)=C/CC[C@@]1(C)O (stereo partly specified),,,5.51,21.8,13.9,31.7,,,3.27,> 100,2.52,6.06,0.38,21.9,42.7,> 100,2.59,6.99,3.66,13.2
COC1CC2C=CC3C4OC2(/C(C)=C/C(C)C(C(C)O)OC1=O)C3C(O)C(C)C4OC(=O)c1ccc[nH]1 (stereo unspecified),,> 100,,> 100,,> 100,,> 100,,> 100,,> 100,,> 100,,> 100,,,,> 100
O=C1/C(=C/c2ccccc2Br)COc2ccc(O)c(O)c21,1.97,3.69,0.557,3.12,1.61,4.78,1.83,4.17,0.261,0.682,,,1.94,4.42,2.25,11.4,1.66,3.22,1.97,4.82
NCCCn1c2c(c3cc4c(cc3c1=O)OCO4)C(=O)c1ccccc1-2,,,0.554,1.94,0.757,2.13,0.564,2.09,,0.208,,,,,5.18,> 100,,,2.91,> 70.3
N#Cc1nn(C2OC(COC(=O)c3ccccc3)C(OC(=O)c3ccccc3)C2OC(=O)c2ccccc2)c2nc[nH]c(=O)c12 (stereo unspecified),,47.2,,> 100,,,,> 100,,> 100,,> 100,,> 100,,> 100,,> 100,,> 100
Oc1cccc(Cn2c(-c3cccc(O)c3O)nc3ccccc32)c1O,17.6,60.4,2.08,14.9,8.62,30.2,3.02,14.1,9.69,> 100,9.49,38.4,10.9,27.6,,,5.82,25.4,42,> 100
CCOC(=O)CNC1C(NC(C)=O)C(OC)OC2COC(c3ccccc3)OC21 (stereo unspecified),,> 100,,> 100,,> 100,,> 100,,> 100,,> 100,,> 100,,,,> 100,,> 100
O=C1C(Cl)=C(Nc2cccc(O)c2)C(=O)N1c1cccc(Cl)c1,,,39.1,> 100,68.2,> 100,37.7,> 100,12.8,34.3,,,85.7,> 100,67.2,> 100,25.5,> 100,34.7,> 100
CC(C)c1cccc(C(C)C)c1N=C(N)C#N,,> 100,,> 58.2,,> 100,,> 100,,> 87.3,,50,,> 100,,,,> 100,,> 100
